# Patent US6955873B1, “Diagnosis and treatment system for reward deficiency syndrome (RDS) and related behaviors” (priority 1999, dated 2005)
# “Also recorded” adds a separate entry of the source. Like-named read-outs stand apart in the source and are kept apart here.
# Columns and labels:
# [1] = tested on: subjects diagnosed with ADHD; details: study in the early 70's; cited from earlier work
# animals and humans = details: cited from earlier work
# animals [2] = details: cited from earlier work; for rewarding actions: dopamine receptor agonists
# swine = details: in vivo; cited from earlier work
# [3] = tested on: synaptosomes in rat brain slices; details: cited from earlier work
# [4] = in vivo; cited from earlier work
# cell culture = details: concentrations thousands of times higher than physiological levels; cited from earlier work
# alcoholics = details: in vivo; cited from earlier work
# humans [5] = details: in vivo; cited from earlier work
# common cold = details: high dose supplementation; cited from earlier work
# mice [6] = details: cited from earlier work
# [7] = tested on: patients with age-related memory disorders; details: certain patients; not substantiated by clinical trials; cited from earlier work
# [8] = tested on: allergy tested subjects with common cold; details: lozenges
# animals and man = details: cited from earlier work; for analgesia: used separately
# COMT = COMT (Homo sapiens, UniProt P21964); details: cited from earlier work
# brain of mice = details: cited from earlier work
# [9] = tested on: Blood Brain Barrier (BBB); details: mice, vs saline controls, cited from earlier work
# 5-HTP decarboxylase = 5-HTP decarboxylase (Homo sapiens, UniProt P20711); details: cited from earlier work
# MAO = details: cited from earlier work
# [10] = tested on: spontaneously hypertensive rats (SHR); experiment: Blood pressure in spontaneously hypertensive rats (SHR); details: rat, in vivo
# Excerpt: D-Phenylalanine was able to lower systolic blood pressure of these rats close to normal (average drop of 36.7 mm Hg). It is noteworthy that this effect is blocked by the narcotic antagonist and the effect on blood pressure is synergistic with the beta-blocker popranolol. Even more important is that the lowering of blood pressure by d-phenylalanine lasted several days.
# mice [11] = details: animal tests; cited from earlier work
# pain patients = details: cited from earlier work
# humans [12] = experiment: Blood pressure in humans; format: in vivo, human; details: single dose
# mice [13] = details: cited from earlier work; remark: listed apart in the source
# adult albino rats = details: 10 day administration, 500 ng/kg per day with the drinking water; cited from earlier work
# PMDD patients = details: 1200 mg of calcium; cited from earlier work
# animals [14] = details: cited from earlier work
# neurons = details: cited from earlier work
# [15] = cited from earlier work; for duration of action: in vivo
# mu-opioid receptor = mu-opioid receptor (Mus musculus, UniProt P42866); details: spinal cord, wild-type mice; cited from earlier work
# rhinovirus = details: reported 1974; cited from earlier work
# aminotripepidase = details: cited from earlier work
# [16] = mu-opioid receptor knockout mice
# [17] = homozygous mu-opioid receptor knockout mice
# [18] = wild type (and heterozygous) mice
# Sequence of COMT (P21964 whole entry, species assumed): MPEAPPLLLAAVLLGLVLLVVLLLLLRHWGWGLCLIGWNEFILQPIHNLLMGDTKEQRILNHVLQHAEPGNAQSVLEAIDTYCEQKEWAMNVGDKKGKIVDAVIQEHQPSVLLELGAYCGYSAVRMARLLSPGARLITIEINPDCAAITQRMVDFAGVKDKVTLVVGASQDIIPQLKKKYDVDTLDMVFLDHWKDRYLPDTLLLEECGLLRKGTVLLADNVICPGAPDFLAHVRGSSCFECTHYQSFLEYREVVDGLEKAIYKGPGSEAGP
# Sequence of mu-opioid receptor (P42866 whole entry): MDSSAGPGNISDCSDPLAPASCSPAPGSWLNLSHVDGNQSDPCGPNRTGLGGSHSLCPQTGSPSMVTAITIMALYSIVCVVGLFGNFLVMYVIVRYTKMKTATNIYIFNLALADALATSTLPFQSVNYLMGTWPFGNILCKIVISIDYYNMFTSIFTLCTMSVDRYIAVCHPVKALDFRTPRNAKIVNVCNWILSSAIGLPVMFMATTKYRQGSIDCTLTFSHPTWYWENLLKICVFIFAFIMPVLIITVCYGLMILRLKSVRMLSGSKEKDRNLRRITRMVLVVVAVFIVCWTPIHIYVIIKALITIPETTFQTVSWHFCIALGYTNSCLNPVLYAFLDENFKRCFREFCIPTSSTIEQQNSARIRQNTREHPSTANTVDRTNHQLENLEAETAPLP
# Sequence of 5-HTP decarboxylase (P20711 whole entry): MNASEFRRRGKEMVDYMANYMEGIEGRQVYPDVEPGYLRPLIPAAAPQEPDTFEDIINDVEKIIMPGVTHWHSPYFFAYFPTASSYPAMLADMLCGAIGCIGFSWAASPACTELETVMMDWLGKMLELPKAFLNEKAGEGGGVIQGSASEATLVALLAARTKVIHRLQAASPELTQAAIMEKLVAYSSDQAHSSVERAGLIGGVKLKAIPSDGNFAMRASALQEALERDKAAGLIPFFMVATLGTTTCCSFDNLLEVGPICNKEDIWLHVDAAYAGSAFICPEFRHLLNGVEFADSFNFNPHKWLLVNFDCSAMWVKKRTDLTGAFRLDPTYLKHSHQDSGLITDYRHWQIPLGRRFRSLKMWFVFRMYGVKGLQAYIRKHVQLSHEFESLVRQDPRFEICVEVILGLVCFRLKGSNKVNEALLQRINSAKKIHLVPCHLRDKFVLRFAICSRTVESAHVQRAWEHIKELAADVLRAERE
compound,measurement,setting,value
NC(Cc1ccccc1)C(=O)O (racemic) [DL-phenylalanine],anxiety,[1],reduced anxiety
same,mood,[1],increased the mood
same,alcohol intake,animals and humans,significantly lowered
CN1CCc2cccc3c2[C@H]1Cc1ccc(O)c(O)c1-3 [apomorphine],rewarding actions,animals [2],have rewarding actions
methionine-enkephalin,"blood flow in specific brain sites (basal ganglia, frontal cortex, hippocampus)",swine,enhancement of blood flow
Tyr-D-arg,intracellular calcium,[3],enhance intracellular calcium
same,analgesic activity,[4],analgesic
O=C(O)CCc1ccccc1 [hydrocinnamic acid],alcohol intake,animals and humans,significantly lowered
trivalent chromium,chromosome breakage,cell culture,can break chromosomes
CC(C)C[C@H]1C(=O)N2CCC[C@H]2[C@]2(O)O[C@](NC(=O)[C@@H]3C=C4c5cccc6[nH]c(Br)c(c56)C[C@H]4N(C)C3)(C(C)C)C(=O)N12 [bromocriptine],reducing relapse rates as a function of dopamine D2 receptor genotype,alcoholics,selective positive effect
same,rewarding actions,animals [2],have rewarding actions
same,short term memory,humans [5],increase short term memory
O=C1O[C@H]([C@@H](O)CO)C(O)=C1O [vitamin C],decrease of incidence of the common cold,common cold,no evidence
C=CCN1C[C@H](C)N([C@H](c2ccc(C(=O)N(CC)CC)cc2)c2cccc(OC)c2)C[C@H]1C [SNC8O],writhing responses,mice [6]; [16],ineffective
same,writhing responses,mice [6]; wild-type mice,effective
Huperzine,learning and memory,[7],improves learning and memory
Tyr-Arg [Kyotorphin],intracellular calcium,[3],enhance intracellular calcium
same,analgesic activity,[4],analgesic
CC(=O)[O-].CC(=O)[O-].[Zn+2] [Zinc acetate],duration of common cold symptoms,[8],significantly shortened
same,symptoms associated with allergies,[8],re3lieved
CC(C)C[C@@H](N)C(=O)O [D-leucine],alcohol intake,animals and humans,significantly lowered
same,analgesia,animals and man; animals and man,excellent analgesia
"OC[C@H]1O[C@@H](OCCc2ccc(O)cc2)[C@H](O)[C@@H](O)[C@@H]1O [SAL, Salidosid]",COMT activity,COMT,inhibit; also recorded: inhibits COMT activity
same,disulfuram-induced decrease of NE in the brain,"brain of mice; 30 mg/kg, animals",prevented
same,decrease of content of 5-HT,brain of mice; 30 mg/kg,15%
same,decrease of content of NE,brain of mice; 30 mg/kg,26%
same,decrease of concentration of Dopamine,brain of mice; 100 mg/kg,28%
same,decrease of concentration of NE,brain of mice; 100 mg/kg,20%
same,decrease of concentration of serotonin,brain of mice; 100 mg/kg,23%
same,levels of epinephrine and DOPA,"brain of mice; mouse, in vivo",did not alter
same,increase of the rise in serotonin,[9]; SAL 30 mg/Kg with 5-HTP 100 mg/kg,13%
same,increase of the rise in exogenous DOPA,[9]; SAL 30 mg/Kg with L-Dopa 50 mg/kg,26%
same,activity of 5-HTP decarboxylase,5-HTP decarboxylase,does not alter
same,MAO activity,MAO,inhibit; also recorded: decreases MAO activity
N[C@H](Cc1ccccc1)C(=O)O [D-phenylalanine],average drop of systolic blood pressure,[10],36.7 mm Hg
same,duration of lowering of blood pressure,[10],several days
same,effect on blood pressure in presence of narcotic antagonist,[10],blocked
same,effect on blood pressure with the beta-blocker popranolol,[10],synergistic
same,heart rate,[10],no change
same,systolic and diastolic blood pressure,[10],significantly lowered
same,alcohol intake,animals and humans,significantly lowered
same,tolerance or addiction,animals and man; animals and man,without developing tolerance or addiction
same,duration of analgesia,animals and man; humans,very long-lasting
same,analgesia,animals and man; animals and man,excellent analgesia
same,anti-inflammatory character,mice [11],exhibits anti-inflammatory character
same,pain associated with osteo- and rheumatoid arthritis,pain patients; cross-over studies in humans,reduced pain
same,analgesia in patients reactive to approved analgesic drugs including opiates,pain patients; double-blind studies,induced analgesia
same,analgesic effects of acupuncture,pain patients; in vivo,enhance
same,effect on blood pressure in normotensive individuals,humans [12],no effect
same,duration of blood pressure lowering,humans [12]; humans,one or more days
DPDPE,withdrawal responses to mechanical stimuli,mice [13]; [17],not
same,withdrawal responses to mechanical stimuli,mice [13]; [18],reduced
NC(=O)CC[C@H](N)C(=O)O [1-glutamine],"content of glutamate, GABA and taurine in the brain",adult albino rats,significant increase
O=C(CCCN1CCC(O)(c2ccc(Cl)cc2)CC1)c1ccc(F)cc1 [haloperidol],alcohol and cocaine self-administration,animals [2]; animals,atenuate or block
[Ca+2] [calcium],rate of reported symptoms relative to placebo,PMDD patients,fifty percent
C/C=C1\[C@H]2C=C(C)C[C@]1(N)c1ccc(=O)[nH]c1C2 [Huperzine A],difference between amounts effective for memory and learning and the non-toxic-effect dose,animals [14]; behavioral studies in animals,30-100 fold
same,side effects,animals [14]; dose of 2 micrograms/kg,no remarkable side effects
same,glutamate-induced cellular death of neurons,neurons,blocked
same,time active,[15]; dose of 2 micrograms/kg,six hours
same,duration of action,[15],3 h
Nc1c2c(nc3ccccc13)CCCC2 [Cognex],duration of action,[15],2 h
CN1CC[C@]23c4c5ccc(O)c4O[C@H]2[C@@H](O)C=C[C@H]3[C@H]1C5 [Morphine],withdrawal responses to mechanical stimuli,mice [13]; [17],no significant effect
same,withdrawal responses to mechanical stimuli,mice [13]; [18],dose-dependent reduction
same,writhing responses,mice [6]; [16],ineffective
same,writhing responses,mice [6]; wild-type mice,effective
CC(C)CC(N)C(=O)O (racemic) [DL-leucine],alcohol intake,animals and humans,significantly lowered
C[C@@H](NC(=O)[C@@H](N)Cc1ccc(O)cc1)C(=O)NCC(=O)N(C)[C@@H](Cc1ccccc1)C(=O)NCCO [DAMGO],[35S]GTPgammaS binding,mu-opioid receptor,concentration-dependent Increases
[Zn+2] [zinc ions],rhinovirus replication,rhinovirus,inhibit
same,inhibition of aminotripepidase,aminotripepidase,potent inhibitor
